Results: patent US11534441B2, “MAP4K1 inhibitors” (Blueprint Medicines Corporation, priority 2020, dated 2022)

Tests used:
expanded CD3+ T cells = test: T cell enhancement of cytokines: IL2 measurement (HTRF) in expanded CD3+ T cells stimulated with anti-CD3/anti-CD28; format: cell-based, human; conditions: IL-2 measurement
Method: T cells are isolated from whole blood of healthy donors by immunomagnetic negative selection following manufacture's protocol (StemCell Technologies, human T cell isolation kit). Purity of isolated cells is assessed by flow cytometry and yields 95-98% CD3^+ T cells. For expansion of T cells, 1×10^6 cells/well are plated in serum free cell expansion media (ThermoFisher) containing 30 U of recombinant human IL2 (R&D) and stimulated with 25 ul of CD3/CD28 beads (Invitrogen) in 24 well plates for 3-4 days. T cells are then expanded in 175 cm flasks and maintained at a cell density of 1 to 2.5×10^6 cells/ml days by addition of ⅔ of fresh media every 2-3 days. After 10-14 days, cells are frozen in BamBanker freezing media (Thermo) and stored in liquid nitrogen.
For IL2 measurement, expanded CD3^+ T cells are dispensed at 100K cells/well (cultured in X-VIVO 10 Serum-free media) and are stimulated with plate-bound anti-CD3 and soluble anti-CD28 in the presence of vehicle or compound of the disclosure at various concentrations for 24 h. As outlined in the manufacturer's protocol (Cisbio), 16 μL of conditioned media is transferred to a white 384-well low volume plate. Following a 24 h incubation with the anti-IL2 antibodies, the homogenous time resolved fluorescence (HTRF) is measured.

MAP4K1 (HPK1) = MAP4K1 (HPK1) (Homo sapiens (Human), UniProt Q92918); test: MAP4K1 (HPK1) biochemical enzymatic activity, electrophoretic mobility shift (EZReader 2), ATP at APPKM (26 μM)
Chain of MAP4K1 (HPK1) (Q92918 whole entry): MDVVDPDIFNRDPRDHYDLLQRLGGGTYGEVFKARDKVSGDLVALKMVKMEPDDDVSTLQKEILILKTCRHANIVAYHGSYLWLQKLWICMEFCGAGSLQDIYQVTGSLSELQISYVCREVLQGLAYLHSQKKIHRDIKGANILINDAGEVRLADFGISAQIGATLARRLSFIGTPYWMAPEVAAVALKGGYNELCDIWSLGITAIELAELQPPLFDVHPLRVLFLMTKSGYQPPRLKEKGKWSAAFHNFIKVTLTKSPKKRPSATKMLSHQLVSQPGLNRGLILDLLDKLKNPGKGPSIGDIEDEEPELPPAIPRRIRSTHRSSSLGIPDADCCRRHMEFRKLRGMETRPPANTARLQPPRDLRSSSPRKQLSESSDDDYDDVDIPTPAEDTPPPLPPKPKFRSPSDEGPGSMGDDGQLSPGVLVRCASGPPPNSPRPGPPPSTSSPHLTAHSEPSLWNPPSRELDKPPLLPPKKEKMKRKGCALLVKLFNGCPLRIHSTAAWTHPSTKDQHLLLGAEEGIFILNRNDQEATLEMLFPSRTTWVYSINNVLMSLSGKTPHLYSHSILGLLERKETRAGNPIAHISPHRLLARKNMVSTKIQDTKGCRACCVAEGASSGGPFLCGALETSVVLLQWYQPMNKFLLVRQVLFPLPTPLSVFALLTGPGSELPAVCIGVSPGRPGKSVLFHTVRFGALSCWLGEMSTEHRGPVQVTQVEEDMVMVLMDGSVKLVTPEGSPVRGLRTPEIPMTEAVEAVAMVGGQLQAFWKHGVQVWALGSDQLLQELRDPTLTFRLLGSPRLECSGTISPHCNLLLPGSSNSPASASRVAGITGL
Outline: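 Phosphorylated and unphosphorylated peptide were separated electrophoretically, and the product/substrate peak ratio served as readout. Reactions held 0.1-15 nM HPK1, 1.5 μM fluorescent peptide and 26 μM ATP (apparent Km) in pH 7.5 HEPES buffer with MgCl2 and DTT. Compounds were tested as 4-fold, 10-point dilutions in 1% DMSO for 60-180 min at 25° C, then quenched with EDTA.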

[1] = Homo sapiens, T-cell, class designation
[2] = Homo sapiens, T-cell, numeric value

SMILES | EC50 (expanded CD3+ T cells; [1]) | EC50 (expanded CD3+ T cells; [2]) | IC50 (MAP4K1 (HPK1); class designation) | IC50 (MAP4K1 (HPK1); numeric value) | EC50 (expanded CD3+ T cells; class designation) | EC50 (expanded CD3+ T cells; numeric value)
CC1(C)Cc2nc(Nc3cc4c(C(C)(C)N)cnc(OC5CCC5)c4cn3)ccc2C(=O)O1 [Compound 72, 2-((5-(2-Aminopropan-2-yl)-8-cyclobutoxy-2,7-naphthyridin-3-yl)amino)-7,7-dimethyl-7,8-dihydro-5H-pyrano[4,3-b]pyridin-5-one] | 35.1 to 45 nM | 35.5 nM | 0.31 to 1 nM |  |  | 
CC1(C)Cc2nc(Nc3cc4c(C(C)(C)N)cnc(OCC(F)(F)F)c4cn3)ccc2C(=O)O1 [Compound 77] | < 35 nM | 32.5 nM | 0.31 to 1 nM | 0.65 nM |  | 
CC[C@](C)(N)c1cnc(OC2(C)CC2)c2cnc(Nc3ccc4c(n3)[C@@H](C)C(C)(C)OC4=O)cc12 [Compound 87] |  |  | 0.31 to 1 nM | 0.44 nM | < 35 nM | 31.6 nM
COc1ncc([C@@](C)(N)C2CC2)c2cc(Nc3ccc4c(n3)[C@@H](C)C(C)(C)OC4=O)ncc12 [Compound 102] |  |  | 1.1 to 10 nM | 1.87 nM | < 35 nM | 28.7 nM
CC(C)(N)c1cnc(OC2CC2)c2cnc(Nc3ccc4c(n3)C(C)(C)OC4=O)cc12 [Compound 105] | 45.1 to 55 nM | 50.6 nM | 1.1 to 10 nM | 2.09 nM |  | 
CC[C@@](C)(N)c1cnc(OC2CC2)c2cnc(Nc3ccc4c(n3)C(C)(C)OC4=O)cc12 [Compound 110] |  |  | 0.31 to 1 nM | 0.55 nM | < 35 nM | 33.9 nM
CC[C@](C)(N)c1cnc(OC2CC2)c2cnc(Nc3ccc4c(n3)C(C)(C)OC4=O)cc12 [Compound 111] |  |  | > 10 nM | 16.8 nM | > 55 nM | 2660 nM
CC[C@]1(C)OC(=O)c2ccc(Nc3cc4c(C(C)(C)N)cnc(OC5CC5)c4cn3)nc21 [Compound 113] |  |  | 0.31 to 1 nM | 0.58 nM | < 35 nM | 32.7 nM
CC[C@@]1(C)OC(=O)c2ccc(Nc3cc4c(C(C)(C)N)cnc(OC5CC5)c4cn3)nc21 [Compound 114] |  |  | 0.31 to 1 nM | 0.88 nM | < 35 nM | 25.6 nM
CC(C)(N)c1cnc(OCC(F)(F)F)c2cnc(Nc3ccnc(C(C)(C)F)n3)cc12 [Compound 115] | > 55 nM | 232 nM | > 10 nM | 7.39 nM |  | 
CC(C)(N)c1cnc(OCC(F)F)c2cnc(Nc3ccc4c(n3)C(C)(C)OC4=O)cc12 [Compound 116] | > 55 nM | 64.9 nM | 1.1 to 10 nM | 2.14 nM |  | 
CC[C@](C)(N)c1cnc(OC2CC2)c2cnc(Nc3ccc4c(n3)[C@@H](C)[C@H](C)OC4=O)cc12 [Compound 131] |  |  | 0.31 to 1 nM | 0.46 nM | 35.1 to 45 nM | 35.2 nM
CC[C@](C)(N)c1cnc(OC2CC2)c2cnc(Nc3ccc4c(n3)CC(C)(C)OC4=O)cc12 [Compound 133] |  |  | 1.1 to 10 nM | 5.86 nM | 45.1 to 55 nM | 53.8 nM

Now those with a lower IC50 (MAP4K1 (HPK1); class designation), led by results:

EC50 (expanded CD3+ T cells; [1]) | EC50 (expanded CD3+ T cells; [2]) | IC50 (MAP4K1 (HPK1); class designation) | IC50 (MAP4K1 (HPK1); numeric value) | EC50 (expanded CD3+ T cells; class designation) | EC50 (expanded CD3+ T cells; numeric value) | SMILES
< 35 nM | 23.7 nM | < 0.3 nM | 0.22 nM |  |  | CC1(C)Cc2nc(Nc3cc4c(C(C)(C)N)cnc(OCC(F)F)c4cn3)ccc2C(=O)O1 [Compound 73]
< 35 nM | 22.2 nM | < 0.3 nM | 0.12 nM |  |  | CC1(C)Cc2nc(Nc3cc4c([C@](C)(N)C5CC5)cnc(OC5CC5)c4cn3)ccc2C(=O)O1 [Compound 74, R-2-((5-(1-amino-1-cyclopropylethyl)-8-cyclopropoxy-2,7-naphthyridin-3-yl)amino)-7,7-dimethyl-7,8-dihydro-5H-pyrano[4,3-b]pyridin-5-one]
< 35 nM | 11.6 nM | < 0.3 nM | 0.19 nM |  |  | C[C@@H]1OC(=O)c2ccc(Nc3cc4c(C(C)(C)N)cnc(OCC(F)(F)F)c4cn3)nc2[C@H]1C [Compound 78]
 |  | < 0.3 nM | 0.08 nM | < 35 nM | 4.1 nM | CC[C@@](C)(N)c1cnc(OC2CC2)c2cnc(Nc3ccc4c(n3)[C@@H](C)[C@H](C)OC4=O)cc12 [Compound 80]
< 35 nM | 20.8 nM | < 0.3 nM | 0.16 nM |  |  | C[C@@H]1OC(=O)c2ccc(Nc3cc4c(C(C)(C)N)cnc(OC5(C)CC5)c4cn3)nc2[C@H]1C [Compound 82]
< 35 nM | 28.7 nM | < 0.3 nM | 0.19 nM |  |  | C[C@@H]1c2nc(Nc3cc4c(C(C)(C)N)cnc(OC5(C)CC5)c4cn3)ccc2C(=O)OC1(C)C [Compound 83]
 |  | < 0.3 nM | 0.22 nM | 35.1 to 45 nM | 36.1 nM | CC[C@](C)(N)c1cnc(OC2(C)CC2)c2cnc(Nc3ccc4c(n3)[C@@H](C)[C@H](C)OC4=O)cc12 [Compound 85]
 |  | < 0.3 nM | 0.16 nM | < 35 nM | 11.5 nM | C[C@@H]1OC(=O)c2ccc(Nc3cc4c([C@@](C)(N)C5CC5)cnc(OC5(C)CC5)c4cn3)nc2[C@H]1C [Compound 88]
 |  | < 0.3 nM | 0.1 nM | < 35 nM | 15.1 nM | C[C@@H]1c2nc(Nc3cc4c([C@](C)(N)C5CC5)cnc(OC5(C)CC5)c4cn3)ccc2C(=O)OC1(C)C [Compound 91]
 |  | < 0.3 nM | 0.25 nM | < 35 nM | 15.4 nM | CC[C@](C)(N)c1cnc(OC2(C)CC2)c2cnc(Nc3ccc4c(n3)[C@@H](C)[C@@H](C)OC4=O)cc12 [Compound 92]
 |  | < 0.3 nM | 0.14 nM | < 35 nM | 23.5 nM | C[C@@H]1c2nc(Nc3cc4c([C@](C)(N)C5CC5)cnc(OC5(C)CC5)c4cn3)ccc2C(=O)O[C@@H]1C [Compound 94]
< 35 nM | 9.4 nM | < 0.3 nM |  |  |  | CC[C@@](C)(N)c1cnc(OC2CC2)c2cnc(Nc3ccc4c(n3)[C@@H](C)[C@@H](C)OC4=O)cc12 [Compound 96]
 |  | < 0.3 nM | 0.11 nM | < 35 nM | 20.8 nM | COc1ncc([C@](C)(N)C2CC2)c2cc(Nc3ccc4c(n3)[C@@H](C)C(C)(C)OC4=O)ncc12 [Compound 101]
< 35 nM | 3.1 nM | < 0.3 nM | 0.11 nM |  |  | COc1ccc(C(C)(C)N)c2cc(Nc3ccc4c(n3)CC(C)(C)OC4=O)ncc12 [Compound 103]
< 35 nM | 9.8 nM | < 0.3 nM | 0.21 nM |  |  | C[C@@H]1OC(=O)c2ccc(Nc3cc4c(C(C)(C)N)cnc(NC5CC5)c4cn3)nc2[C@H]1C [Compound 109]
< 35 nM | 19.6 nM | < 0.3 nM | 0.23 nM |  |  | CC(C)(N)c1cnc(OC2CC2)c2cnc(Nc3ccc4c(n3)C(C)(C)COC4=O)cc12 [Compound 112]
< 35 nM | 7.6 nM | < 0.3 nM | 0.2 nM |  |  | C[C@@H]1c2nc(Nc3cc4c(C(C)(C)N)cnc(NC5CC5)c4cn3)ccc2C(=O)OC1(C)C [Compound 123]
< 35 nM | 7.4 nM | < 0.3 nM | 0.24 nM |  |  | C[C@@H]1OC(=O)c2ccc(Nc3cc4c(C(C)(C)N)cnc(NC5CCC5)c4cn3)nc2[C@H]1C [Compound 124]
 |  | < 0.3 nM | 0.17 nM | < 35 nM | 21 nM | C[C@H]1OC(=O)c2ccc(Nc3cc4c(C(C)(C)N)cnc(OC5CC5)c4cn3)nc2C1(C)C [Compound 127]
